Two compounds from paper PMC13342671 (Nature Communications, 2026) can be followed below.

Type in all cases: cell-based, Human
Assay [1] relates to p53 pathway genes in BxPC-3 cells. Put plainly: RNA sequencing / GSEA in BxPC-3 cells. The settings on record: 3 µM, 4 h.
Assay [2] relates to A549-p53^Y220C cells. Put plainly: SA-β-galactosidase senescence stain. To be noted: 3 µM, 6-day treatment.
The test system of assay [3] is A549-p53^Y220C cells. Kind of assay: Apoptosis FACS. The settings on record: 3 µM.

For the compound `Cc1sc2c(c1C)C(c1ccc(Cl)cc1)=N[C@@H](CC(=O)OC(C)(C)C)c1nnc(C)n1-2` [JQ1], in assay [1], the “share of the top 116 p53 target genes with significantly increased expression” value was 57.0%. In the assay on A549-p53^Y220C cells [2], the “SA-β-gal senescence staining (in words)” value is “relatively few senescent cells”. Further, the “apoptosis induction (in words)” value in the assay with A549-p53^Y220C cells [3] is “slightly less apoptosis”.
In the case of `CCn1c2ccc(CNCCOCCOCCOCCn3cc(COc4ccc(CCc5nc6cc(-c7c(C)noc7C)ccc6n5CCN5CCOCC5)cc4F)nn3)cc2c2ccc(-c3cc(C)cs3)cc21` [MS78], the “share of the top 116 p53 target genes with significantly increased expression” value in assay [1] turned out to be 22.8%.
